In the NIST ThermoML archive (doi:10.1016/j.jct.2004.05.009):
Numbers after ± are expanded uncertainties.

Conditions: Liquid

With `Cl` [hydrogen chloride] the “vapor or sublimation pressure” value (159.01 K) was 13.79 ± 0.3 kPa and the “vapor or sublimation pressure” value (182.33 K) was 72.13 ± 1.2 kPa.
